The values that follow come from PubChem BioAssay AID1963984 (Molecular Pharmacology Branch, DTP, NCI, 2024).

Molecules are shown by their SMILES.
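Further: spheroids exposed to agents for seven days before readout; percent viability relative to DMSO vehicle control taken as 100%.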

The test system of one assay is 233499-124-R-J3-PDC spheroids with HUVEC/MSC, viability. The experiment in a line: Anticancer human tumor 233499-124-R-J3-PDC patient-derived colon adenocarcinoma cell line growth inhibition [PI3K]. The conditions noted are these: second compound 0.316 µM; first compound 0.1 µM; active compounds read low. In short, it runs like this: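 Tumor cells grown as multi-cell spheroids with HUVEC endothelial cells and MSC fibroblast-like stroma were treated with targeted agents combined with inavolisib, alpelisib, duvelisib or copanlisib. Doses fell in half-log steps from near clinical Cmax, else from 10 microM. Viability was measured.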
Usually viability, T/C stands for the result in the treated group divided by that in the control group, in per cent. `C=CC(=O)N1CCN(c2nc(=O)n(-c3c(C)ccnc3C(C)C)c3nc(-c4c(O)cccc4F)c(F)cc23)C(C)C1` (configuration not stated) + CC(Nc1ccc2c(c1)OCCn1cc(N3C(=O)OCC3C(F)F)nc1-2)C(N)=O: the viability, T/C is 80.5%.
For `CC(Cn1ccc(-c2ccc(C#N)c(Cl)c2)n1)NC(=O)c1cc(C(C)O)[nH]n1` (configuration not stated) + CC(Nc1ccc2c(c1)OCCn1cc(N3C(=O)OCC3C(F)F)nc1-2)C(N)=O, the viability, T/C is 63.7%.

Still in this assay, the particulars now being: second compound 0.316 µM; first compound 0.316 µM; active compounds read low.
In the case of `C#Cc1c(F)ccc2cc(O)cc(-c3ncc4c(N5CC6CCC(C5)N6)nc(OCC56CCCN5CC(F)C6)nc4c3F)c12` (configuration not stated) + CC(Nc1ccc2c(c1)OCCn1cc(N3C(=O)OCC3C(F)F)nc1-2)C(N)=O, the viability, T/C is 63.2%.
Regarding `C=CC(=O)N1CCN(c2nc(=O)n(-c3c(C)ccnc3C(C)C)c3nc(-c4c(O)cccc4F)c(F)cc23)C(C)C1` (configuration not stated) + CC(Nc1ccc2c(c1)OCCn1cc(N3C(=O)OCC3C(F)F)nc1-2)C(N)=O, the viability, T/C was 80.8%.
Consider `CC(Cn1ccc(-c2ccc(C#N)c(Cl)c2)n1)NC(=O)c1cc(C(C)O)[nH]n1` (configuration not stated) + CC(Nc1ccc2c(c1)OCCn1cc(N3C(=O)OCC3C(F)F)nc1-2)C(N)=O, for which the viability, T/C is 70.5%.

The assay is the same for the next values; noted with them: second compound 0.316 µM; first compound 1 µM; active compounds read low.
For the molecule `C#Cc1c(F)ccc2cc(O)cc(-c3ncc4c(N5CC6CCC(C5)N6)nc(OCC56CCCN5CC(F)C6)nc4c3F)c12` (configuration not stated) + CC(Nc1ccc2c(c1)OCCn1cc(N3C(=O)OCC3C(F)F)nc1-2)C(N)=O, the viability, T/C was 75.1%.
Take `C=CC(=O)N1CCN(c2nc(=O)n(-c3c(C)ccnc3C(C)C)c3nc(-c4c(O)cccc4F)c(F)cc23)C(C)C1` (configuration not stated) + CC(Nc1ccc2c(c1)OCCn1cc(N3C(=O)OCC3C(F)F)nc1-2)C(N)=O: the viability, T/C is 77.4%.
Still for that read-out and setting: as for `CC(Cn1ccc(-c2ccc(C#N)c(Cl)c2)n1)NC(=O)c1cc(C(C)O)[nH]n1` (configuration not stated) + CC(Nc1ccc2c(c1)OCCn1cc(N3C(=O)OCC3C(F)F)nc1-2)C(N)=O, the figure is 73.6%.

Still in this assay, the particulars now being: second compound 0.316 µM; first compound 3.16 µM; active compounds read low.
`C#Cc1c(F)ccc2cc(O)cc(-c3ncc4c(N5CC6CCC(C5)N6)nc(OCC56CCCN5CC(F)C6)nc4c3F)c12` (configuration not stated) + CC(Nc1ccc2c(c1)OCCn1cc(N3C(=O)OCC3C(F)F)nc1-2)C(N)=O: the viability, T/C was 59.2%.
For `C=CC(=O)N1CCN(c2nc(=O)n(-c3c(C)ccnc3C(C)C)c3nc(-c4c(O)cccc4F)c(F)cc23)C(C)C1` (configuration not stated) + CC(Nc1ccc2c(c1)OCCn1cc(N3C(=O)OCC3C(F)F)nc1-2)C(N)=O, the viability, T/C was 71%.
For the molecule `CC(Cn1ccc(-c2ccc(C#N)c(Cl)c2)n1)NC(=O)c1cc(C(C)O)[nH]n1` (configuration not stated) + CC(Nc1ccc2c(c1)OCCn1cc(N3C(=O)OCC3C(F)F)nc1-2)C(N)=O, the viability, T/C was 90.6%.

The same assay, now with this note: second compound 0.316 µM; first compound 10 µM; active compounds read low.
As for `C#Cc1c(F)ccc2cc(O)cc(-c3ncc4c(N5CC6CCC(C5)N6)nc(OCC56CCCN5CC(F)C6)nc4c3F)c12` (configuration not stated) + CC(Nc1ccc2c(c1)OCCn1cc(N3C(=O)OCC3C(F)F)nc1-2)C(N)=O, the viability, T/C was 38%.
For the molecule `C=CC(=O)N1CCN(c2nc(=O)n(-c3c(C)ccnc3C(C)C)c3nc(-c4c(O)cccc4F)c(F)cc23)C(C)C1` (configuration not stated) + CC(Nc1ccc2c(c1)OCCn1cc(N3C(=O)OCC3C(F)F)nc1-2)C(N)=O, the viability, T/C was 85.5%.
`CC(Cn1ccc(-c2ccc(C#N)c(Cl)c2)n1)NC(=O)c1cc(C(C)O)[nH]n1` (configuration not stated) + CC(Nc1ccc2c(c1)OCCn1cc(N3C(=O)OCC3C(F)F)nc1-2)C(N)=O: the viability, T/C was 41.2%.

Still in this assay, the particulars now being: second compound 1 µM; first compound 0.0316 µM; active compounds read low.
Take `C#Cc1c(F)ccc2cc(O)cc(-c3ncc4c(N5CC6CCC(C5)N6)nc(OCC56CCCN5CC(F)C6)nc4c3F)c12` (configuration not stated) + CC(Nc1ccc2c(c1)OCCn1cc(N3C(=O)OCC3C(F)F)nc1-2)C(N)=O: the viability, T/C is 67.8%.
On to `C=CC(=O)N1CCN(c2nc(=O)n(-c3c(C)ccnc3C(C)C)c3nc(-c4c(O)cccc4F)c(F)cc23)C(C)C1` (configuration not stated) + CC(Nc1ccc2c(c1)OCCn1cc(N3C(=O)OCC3C(F)F)nc1-2)C(N)=O, for which the viability, T/C is 61%.
For the molecule `CC(Cn1ccc(-c2ccc(C#N)c(Cl)c2)n1)NC(=O)c1cc(C(C)O)[nH]n1` (configuration not stated) + CC(Nc1ccc2c(c1)OCCn1cc(N3C(=O)OCC3C(F)F)nc1-2)C(N)=O, the viability, T/C is 62%.

The same assay, now with this note: second compound 1 µM; first compound 0.1 µM; active compounds read low.
For the molecule `C#Cc1c(F)ccc2cc(O)cc(-c3ncc4c(N5CC6CCC(C5)N6)nc(OCC56CCCN5CC(F)C6)nc4c3F)c12` (configuration not stated) + CC(Nc1ccc2c(c1)OCCn1cc(N3C(=O)OCC3C(F)F)nc1-2)C(N)=O, the viability, T/C was 58.6%.
`C=CC(=O)N1CCN(c2nc(=O)n(-c3c(C)ccnc3C(C)C)c3nc(-c4c(O)cccc4F)c(F)cc23)C(C)C1` (configuration not stated) + CC(Nc1ccc2c(c1)OCCn1cc(N3C(=O)OCC3C(F)F)nc1-2)C(N)=O: the viability, T/C is 67.7%.
For the molecule `CC(Cn1ccc(-c2ccc(C#N)c(Cl)c2)n1)NC(=O)c1cc(C(C)O)[nH]n1` (configuration not stated) + CC(Nc1ccc2c(c1)OCCn1cc(N3C(=O)OCC3C(F)F)nc1-2)C(N)=O, the viability, T/C was 62%.

The same assay, now with this note: second compound 1 µM; first compound 0.316 µM; active compounds read low.
Regarding `C#Cc1c(F)ccc2cc(O)cc(-c3ncc4c(N5CC6CCC(C5)N6)nc(OCC56CCCN5CC(F)C6)nc4c3F)c12` (configuration not stated) + CC(Nc1ccc2c(c1)OCCn1cc(N3C(=O)OCC3C(F)F)nc1-2)C(N)=O, the viability, T/C is 58.6%.
On the same count and under the same terms, the same measure for `C=CC(=O)N1CCN(c2nc(=O)n(-c3c(C)ccnc3C(C)C)c3nc(-c4c(O)cccc4F)c(F)cc23)C(C)C1` (configuration not stated) + CC(Nc1ccc2c(c1)OCCn1cc(N3C(=O)OCC3C(F)F)nc1-2)C(N)=O: 44.3%; for `CC(Cn1ccc(-c2ccc(C#N)c(Cl)c2)n1)NC(=O)c1cc(C(C)O)[nH]n1` (configuration not stated) + CC(Nc1ccc2c(c1)OCCn1cc(N3C(=O)OCC3C(F)F)nc1-2)C(N)=O: 47.4%.

The assay is the same for the next values; noted with them: second compound 1 µM; first compound 1 µM; active compounds read low.
On to `C#Cc1c(F)ccc2cc(O)cc(-c3ncc4c(N5CC6CCC(C5)N6)nc(OCC56CCCN5CC(F)C6)nc4c3F)c12` (configuration not stated) + CC(Nc1ccc2c(c1)OCCn1cc(N3C(=O)OCC3C(F)F)nc1-2)C(N)=O, for which the viability, T/C is 44%.
For the molecule `C=CC(=O)N1CCN(c2nc(=O)n(-c3c(C)ccnc3C(C)C)c3nc(-c4c(O)cccc4F)c(F)cc23)C(C)C1` (configuration not stated) + CC(Nc1ccc2c(c1)OCCn1cc(N3C(=O)OCC3C(F)F)nc1-2)C(N)=O, the viability, T/C was 56.3%.
In the case of `CC(Cn1ccc(-c2ccc(C#N)c(Cl)c2)n1)NC(=O)c1cc(C(C)O)[nH]n1` (configuration not stated) + CC(Nc1ccc2c(c1)OCCn1cc(N3C(=O)OCC3C(F)F)nc1-2)C(N)=O, the viability, T/C was 62.6%.

The same assay, now with this note: second compound 1 µM; first compound 3.16 µM; active compounds read low.
Regarding `C#Cc1c(F)ccc2cc(O)cc(-c3ncc4c(N5CC6CCC(C5)N6)nc(OCC56CCCN5CC(F)C6)nc4c3F)c12` (configuration not stated) + CC(Nc1ccc2c(c1)OCCn1cc(N3C(=O)OCC3C(F)F)nc1-2)C(N)=O, the viability, T/C is 44.4%.
Same read-out and setting: the same measure for `C=CC(=O)N1CCN(c2nc(=O)n(-c3c(C)ccnc3C(C)C)c3nc(-c4c(O)cccc4F)c(F)cc23)C(C)C1` (configuration not stated) + CC(Nc1ccc2c(c1)OCCn1cc(N3C(=O)OCC3C(F)F)nc1-2)C(N)=O: 63.6%; for `CC(Cn1ccc(-c2ccc(C#N)c(Cl)c2)n1)NC(=O)c1cc(C(C)O)[nH]n1` (configuration not stated) + CC(Nc1ccc2c(c1)OCCn1cc(N3C(=O)OCC3C(F)F)nc1-2)C(N)=O: 66%.

Still in this assay, the particulars now being: second compound 1 µM; first compound 10 µM; active compounds read low.
With `C#Cc1c(F)ccc2cc(O)cc(-c3ncc4c(N5CC6CCC(C5)N6)nc(OCC56CCCN5CC(F)C6)nc4c3F)c12` (configuration not stated) + CC(Nc1ccc2c(c1)OCCn1cc(N3C(=O)OCC3C(F)F)nc1-2)C(N)=O, the viability, T/C is 35.2%.
Take `C=CC(=O)N1CCN(c2nc(=O)n(-c3c(C)ccnc3C(C)C)c3nc(-c4c(O)cccc4F)c(F)cc23)C(C)C1` (configuration not stated) + CC(Nc1ccc2c(c1)OCCn1cc(N3C(=O)OCC3C(F)F)nc1-2)C(N)=O: the viability, T/C was 66.9%.
Regarding `CC(Cn1ccc(-c2ccc(C#N)c(Cl)c2)n1)NC(=O)c1cc(C(C)O)[nH]n1` (configuration not stated) + CC(Nc1ccc2c(c1)OCCn1cc(N3C(=O)OCC3C(F)F)nc1-2)C(N)=O, the viability, T/C was 54.6%.
